According to US9120094B2, “Polymerization of bis[3-(diethoxyphosphoryl)propyl]diallylammonium chloride” (King Fahd University of Petroleum and Minerals, priority 2013, dated 2015):

Tests used:
[1] = Solubility behavior of polymers in solvents; type: physicochemical; details: water (salt-free)
Description: After stirring a mixture of PZ 5 or PZA 7 (2 w/w %) in a solvent at 70° C. […] Table II is presented below.

[2] = Potentiometric titration for protonation (basicity) constants; type: physicochemical; details: monomer, 0.0175M NaCl at 23° C.
Excerpt: Procedure for the determination of the protonation constants (K1, K2 and K3) of the polyzwitterion/trianion (PZTAN) 10 (Z^±≡) and K1, K2 and K4 of its corresponding monomer ZTAN 15 (Z^±≡) by potentiometric titrations, carried out in an atmosphere of N2 in CO2-free water, is described elsewhere (Al-Muallem, H. A.; Wazeer M. I. M.; Ali, S. A. Polymer, 2002, 43, 4285—incorporated herein by reference in its entirety). A certain mmol of PZA 7 (ZH3^±) or 11 (ZH4^+) in 200 cm^3 of 0.0175 M NaCl was used in each trial (Tables 3 and 4). As the polymer was insoluble in salt-free water, it (≈100 mg) was first dissolved in 1 M NaCl (3.5 mL) and then diluted to 200 mL to make the polymer solution in 0.0175 M NaCl. For the sake of comparison the NaCl strength of water-soluble monomer 11 was also kept at 0.0175 M.
The Log K1, Log K2 and Log K3 of the respective protonation of ^2−O3P—X^+—PO3^2− [in (±≡) PZTAN 10], ^2O3P—X^+—PO3H^− [in (±=) (PZDAN) 9] and ^−HO3P—X^+—PO3H^− [(in (±−) plyzwitterion/anion (PZAN) 8] were calculated at each pH value by the Henderson-Hasselbalch eq 2 (Scheme 2) where the degree of protonation (α) is the ratios [ZH^±=]eq/[Z]o, [ZH2^±−]eq/[Z]o and [ZH3^±]eq/[Z]o, respectively. The [ZH^±=]eq, [ZH2^±−]eq and [ZH3^±]eq represent the respective equilibrium concentrations of the first (9), second (8) and third protonated species (7) whereas [Z]o describes the initial concentration of repeating units.
For the determination of the third step [8 (ZH2^±−)+H^+⇄7 (ZH3^±)] protonation constant (log K3) using the titration of PZA 7 [ZH3^±] with NaOH, α represents the ratio [ZH3^±]eq/[Z]o whereby [Z]o and [ZH3^±]eq are related by [ZH3^±]eq=[Z]o—COH^−—[H^+]+[OH^−], where COH^− represent the added NaOH concentration. The equilibrium [H^+] and [OH^−] values were calculated from the pH value. Continuing the titration, the second step [9 (ZH^±=)+H^+⇄8 (ZH2^±−)] protonation constant (log K2) was determined using volume of the titrant after deducting the equivalent volume from the total volume. […]

Solubility in words [1] | Log Ki^o (log K4) ([2]; fourth step 12 (ZH3±) to 11 (ZH4+), approximate, 2[Z]o used) | Log Ki^o (log K2) ([2]; second step protonation) | Log Ki^o (log K1) ([2]; titration of 11 (ZH4+) with NaOH, first step protonation of 15) | SMILES
water-soluble |  |  |  | C=CC[N+](CC=C)(CCCP(=O)(O)O)CCCP(=O)(O)O.[Cl-] [compound 11]
 | 2.30 | 7.43 | 9.78 | C=CC[N+](CC=C)(CCCP(=O)([O-])[O-])CCCP(=O)([O-])[O-].[Na+].[Na+].[Na+] [compound 15]
